Laboratory results as given in patent US20250360099A2, “A significantly non-toxic novel Cobalt(III) Schiff base complex induces apoptosis via G2-M cell cycle arrest in human breast cancer cell line MCF-7 and cell cycle arrest of colon cancer cell lines HCT-116 and SW- 480 via G0-G1” (CHITTARANJAN NATIONAL CANCER INSTITUTE, priority 2023, published 2025).
Like-named read-outs stand apart in the source and are kept apart here.

Key:
HCT-116 [1] = assay: MTT study with OCT3 inhibitor, HCT-116; format: cell-based, human; details: at the respective doses of inhibitor
SW-480 [2] = assay: MTT study with OCT3 inhibitor, SW-480; format: cell-based, human; details: at the respective doses of inhibitor
SW-480 [3] = assay: Cell cycle distribution (PI), SW-480; format: cell-based, human; details: 24 h
HCT-116 [4] = assay: Annexin V-FITC/PI-PE dual staining, HCT-116; format: cell-based, human; details: respective IC50 dose, 24 h
MCF-7 cells [5] = assay: FACS-based Annexin V-FITC/PI dual staining assay; format: cell-based, human; details: IC50 dose, 24 h
Description: FACS-based Annexin V-FITC/PI dual staining assay: MCF-7 cells were seeded in 6-well plate at 1×10^5 cells per well and treated with an IC50 dose of complex 1 and oxaliplatin for 24 h, after which they were harvested by trypsinization and processed into cell suspensions (10^6 cells were taken from each group). Cells were centrifuged at 800 g before being re-suspended in a dye mix that included 250 μL Annexin V-FITC binding buffer, 1 μL PI solution, and 3 μL Annexin V-FITC solution as per assay kit protocol. For 15 minutes, the cell suspension was kept in dark. The BD FACS Verse was used to detect the intensities of red and green fluorescence, and Flowjo software (version 10) was used to assess the apoptotic rates of treated cells. Ten thousand events were collected to determine the population percentage. All experiments were repeated three times, and the results were presented as mean±SD.

SW-480 [6] = assay: Wound healing (scratch) assay, SW-480; format: cell-based, human; details: IC50 dose, 12-48 h
[7] = tested on: Human colon cancer cell line HCT-116; assay: XTT assay, cytotoxicity on HCT-116; format: cell-based; details: 24 h
Source text: (§1) Colon cancer cell lines and culture condition: Human colon cancer cell lines HCT-116 and SW-480 were purchased from NCCS, Pune. The carcinoma cell line (HCT-116) is wild-type for TP53 and adenocarcinoma cell line (SW480) is a double-mutant for TP53 gene.

MCF-7 cells [8] = assay: Cell cycle study by flow cytometry after PI staining; format: cell-based, human; details: IC50 concentration, 24 h; untreated 8.88%
Description: (§2) Cell proliferation and cycle study using FACS: To detect cell proliferation, CFSE dye was used. At first, MCF-7 cells were stained with 5 μM of CFSE dye for 15 min at 37° C. followed by the addition of FBS containing RPMI 1640 medium to end the reaction. Then CFSE-stained cells were cultured with both oxaliplatin and complex 1 for 24 h in 35-mm plates. One set of stained untreated cells was seeded only in complete media without any compound. For inhibition of proliferation, cells were grown in a serum-free medium (starvation) for 24 h as a positive control. On the next day, the green fluorescence intensity of CFSE within each cell was measured by flow cytometry, and data were calculated using Flowjo software (version 10). For cell cycle study, MCF-7 cells were seeded at 1×10^5 cells per well in a 6-well plate, treated with an IC50 dose of complex 1 and oxaliplatin for 24 h, then digested by trypsinization and made into cell suspension (10^6 cells were harvested from each group) in 2% FBS containing 1×PBS, followed by fixation in 70% ethanol overnight at 4° C. After that cells were centrifuged at 850×g in a low-temperature centrifuge for 5 min. […] BD FACS flow cytometer was used to assess the difference in cell cycle phase distribution of nuclear DNA, which was then analyzed using Flowjo software (version 10). […]

SW-480 [9] = assay: Annexin V-FITC/PI-PE dual staining, SW-480; format: cell-based, human; details: respective IC50 dose, 24 h
[10] = tested on: Human colon cancer cell line SW-480; assay: XTT assay, cytotoxicity on SW-480; format: cell-based; details: 24 h
Source text: as §1

HCT-116 [11] = assay: CFSE cell proliferation, HCT-116; format: cell-based, human; details: respective IC50 dose, 24 h
MCF-7 cells [12] = assay: CFSE cell proliferation assay (FACS); format: cell-based, human; details: IC50 dose, 24 h
Description: as §2

HCT-116 [13] = assay: Wound healing (scratch) assay, HCT-116; format: cell-based, human; details: IC50 dose, 12-48 h
HCT-116 [14] = assay: Cell cycle distribution (PI), HCT-116; format: cell-based, human; details: 24 h
SW-480 [15] = assay: CFSE cell proliferation, SW-480; format: cell-based, human; details: respective IC50 dose, 24 h
HCT-116 cells = assay: TUNEL staining, fluorescence microscopy; format: cell-based, human; details: 24 h
[16] = tested on: human breast cancer cell line MCF-7; assay: MTT assay, cytotoxicity on breast cancer cells
Description: Breast cancer cell line and culture condition: Cells were cultured in a humidified air-jacked CO2 incubator (Thermo scientific, Heracellvios 160i). […] Human breast cancer cells lines MCF-7, were purchased from NCCS, Pune. […] The cells were cultured as monolayers in RPMI-1640 supplemented with 10% heat-inactivated fetal bovine serum (FBS), 1% penicillin-streptomycin, and 1% antibiotic-antimycotics and 1% non-essential amino acids at 37° C. in a fully humidified air-jacketed incubator of 5% CO2 and 95% air. All the experiments were performed from exponentially growing passage of 15 or less with 80% cell confluency and then sub-cultured to a fresh media to keep cells healthy and actively growing.
The MTT assay is a quantitative, sensitive, and reliable colorimetric assay that mainly measures cell viability and proliferation. […] The cells viability was estimated spectrophotometrically by measuring absorbance at 570 nm using an ELISA plate reader. To calculate the cell viability percentage, the average absorbance of each treatment group was acquired and normalized based on the untreated control. The half inhibitory concentration (IC50 value) was calculated by putting the experimental data with the dose-response model (Prism 6, Version 6.0b, GraphPad Software).

SMILES | toxicity of the inhibitor itself, HCT-116 (HCT-116 [1]) | toxicity of the inhibitor itself, SW-480 (SW-480 [2]) | cell cycle distribution, SW-480 (SW-480 [3]) | number of apoptotic cells vs untreated, HCT-116 (HCT-116 [4]) | late apoptotic (Annexin V+/PI+) population (MCF-7 cells [5]; untreated 2.87%) [%] | early apoptotic population (Annexin V+/PI−) (MCF-7 cells [5]; untreated 4.96%) [%] | migration of cells vs untreated, SW-480 (SW-480 [6]) | IC50 [7] [µM] | population of cells in the G2-M phase (MCF-7 cells [8]) [%] | number of apoptotic cells vs untreated, SW-480 (SW-480 [9]) | IC50 [10] [µM] | cell proliferation, HCT-116 (HCT-116 [11]) | CFSE staining intensity vs untreated controls (MCF-7 cells [12]) | migration of cells vs untreated, HCT-116 (HCT-116 [13]) | cell cycle distribution, HCT-116 (HCT-116 [14]) | cell proliferation, SW-480 (SW-480 [15]) | TUNEL-positive cells vs untreated control (HCT-116 cells) | IC50 ([16]; read-out: IC50, cytotoxicity on MCF-7 cells, 24 h, mean±SD) [µM] | IC50 ([16]; read-out: IC50, cytotoxicity on MCF-7 cells, 48 h, mean±SD) [µM]
CCN1/C(=C/c2ccc3ccccc3[n+]2CC)C=Cc2ccccc21.[I-] [Dycenium-22] | non-toxic | non-toxic |  |  |  |  |  |  |  |  |  |  |  |  |  |  |  |  | 
O=C1[O][Pt]2([NH][C@@H]3CCCC[C@H]3[NH]2)[O]C1=O [oxaliplatin, reference compound] |  |  | cell cycle arrest at G0-G1 phase | elevated the number of apoptotic cells | 23.9 | 9.58 | reduced the migration of cells | 16.7 ± 1.78 | 21.3 | elevated the number of apoptotic cells | 7.87 ± 1.54 | suppressed the cell proliferation | significantly higher | reduced the migration of cells | cell cycle arrest at G0-G1 phase | suppressed the cell proliferation | increased number of TUNEL-positive cells | 31.4 ± 0.69 | 15.1 ± 1.81
